Experiments:
[1] = target: T1, FLAG-tagged Vanin-1 (AA 22-493, T26I) (Homo sapiens, UniProt O95497, T26I); assay: Vanin-1 enzymatic assay; type: biochemical; settings: 0.1 nM Vanin-1, 3 μM D-pantethine, pantothenic acid formation by RapidFire MS; geometric mean if multiple measurements; read-out: VNN-1 IC50
T1 construct: FLAG-tagged Vanin-1 (AA 22-493, T26I, produced internally); FLAG; made in house
T1 sequence (O95497 22-493 T26I): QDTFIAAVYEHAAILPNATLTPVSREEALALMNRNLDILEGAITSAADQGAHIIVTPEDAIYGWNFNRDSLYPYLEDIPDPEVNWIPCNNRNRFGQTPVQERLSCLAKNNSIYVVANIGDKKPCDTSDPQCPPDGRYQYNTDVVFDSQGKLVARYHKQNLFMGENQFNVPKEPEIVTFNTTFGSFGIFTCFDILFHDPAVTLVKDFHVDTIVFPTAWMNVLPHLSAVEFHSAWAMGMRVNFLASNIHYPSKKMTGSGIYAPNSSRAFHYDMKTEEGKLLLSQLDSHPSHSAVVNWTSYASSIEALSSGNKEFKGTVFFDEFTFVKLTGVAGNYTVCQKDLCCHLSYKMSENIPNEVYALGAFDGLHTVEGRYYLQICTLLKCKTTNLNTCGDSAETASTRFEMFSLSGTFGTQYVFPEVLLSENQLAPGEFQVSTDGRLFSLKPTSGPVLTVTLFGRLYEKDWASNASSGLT
Method: The test compounds are dissolved in 100% DMSO at a concentration of 10 mM and in a first step diluted in DMSO to a concentration of 5 mM, followed by serial dilution steps in 100% DMSO. Dilution factor and number of dilution steps may vary according to needs. Typically 8 different concentrations by 1:5 dilutions are prepared, a further intermediate dilutions of the substances is carried out with assay buffer resulting in 1% final DMSO concentration in the assay.
0.1 nM of FLAG-tagged Vanin-1 (AA 22-493, T26I, produced internally) and test compounds are incubated at room temperature for 20 minutes in assay buffer (1 mM DTT, 0.0025% Brij-35, 50 mM HEPES, pH7.5). D-Pantethine (Sigma, Cat #P2125-5G) in assay buffer is added (final concentration 3 μM) and incubated for additional 30 minutes at room temperature. Total assay volume typically is 40 μl but might be adjusted according to needs. Reaction is stopped by adding equal volume of stop solution as the reaction mixture to reach 100 nM HD-pantothenic acid (as an internal standard) and 1% TFA. Assay plates are centrifuged for 2 minutes and the formation of pantothenic acid is detected by RapidFire Mass Spectrometry (mobile phase A: 0.1% formic acid and 0.01% trifluoroacetic acid in water; mobile phase B: 47.5% acetonitrile, 47.5% methanol, 0.1% formic acid and 0.01% trifluoroacetic acid in water) using a C18, 12 μL cartridge (Agilent Cat #G9205A).
The values given in Table I result from measurements of one or more samples. In case of multiple measurements the geometric mean values are given.

Pantetheinase (vanin) = assay: Human Whole Blood assay; type: cell-based; settings: pantethine substrate, pantothenic acid formation by RapidFire MS, read-out: HWB IC50
Method: Human Whole Blood assay: Pantetheinase (vanin) converts panteheine into pantothenic acid and cysteamine. Accordingly, in the described protocol vanin activity is quantified by formation of pantothenic acid after pantetheine supplementation via pantethine. The assay is applicable to identify vanin inhibitors. Compound stocks are dissolved in DMSO at 10 mM. Further dilutions are performed in RPMI 1640 medium (Gibco, #A-10491-01) and final concentrations in the assay are 0.032 nM-500 nM.
Human blood is drawn into a blood bag (1% heparin, 50 I.E./mL). Blood is aliquoted into cavities of 96-deep-well plates at 290 μL and mixed with 10 μL compound solution or vehicle (30 sec at 1400 rpm on a shaker). Equilibration follows at room temperature, 250 rpm and for 30 min. The assay is starts by adding 10 μL of substrate solution (20 μM pantethine in 1 mM DTT, 0.0025% Brij-35, 50 mM HEPES, pH7.5) to each well, except for some blank wells which receive […] substrate buffer (1 mM DTT, 0.0025% Brij-35, 50 mM HEPES, pH7.5) only. Samples are thoroughly shaken (30 sec, 1400 rpm) and reaction is allowed to take place at room temperature, 250 rpm and for 5 min. The reaction is stopped by addition of a vanin tool inhibitor in excess (BI-1 total conc. 10 μM). Centrifugation of the plate follows at 4° C., 665 G for 10 min. Then the blood plasma samples (100 μL) are transferred into another 96-deep-well plate and proteins are precipitated (5 min on ice) by adding 100 μL of ice cold precipitation solution (1 μM labelled pantothenic acid (di-β-alanine-13C6,15N2 calcium salt, Sigma, #705837) in acetonitrile). Afterwards the plate is centrifuged (4° C., 3220 G, 10 min) and supernatants (50 μL) are collected into another 96-deep-well plate and mixed (10 sec, 1400 rpm) with 150 μL ice cold formic acid (0.1%, Carl Roth GmbH+Co.KG, #CP03.1). The formation of pantothenic acid is detected by RapidFire Mass Spectrometry. A TripleQuad 6500+ (ABSciex, Germany) is equipped with an LC-1290 system, a RapidFire autosampler (Agilent, Germany) and a C18 cartridge Type C 12 μL (Agilent Cat #G9526-80000). Mobile phase A is consisting of 0.09% formic acid and 0.01% trifluoroacetic acid in water and mobile phase B of 0.09% formic acid and 0.01% trifluoroacetic acid in acetonitrile/methanol/water=47.5/47.5/5.

SMILES	IC50 [1]	IC50 (Pantetheinase (vanin))
C[C@@H](Nc1ccc(C(=O)N2CC[C@H](N(C)C(=O)C3(C)CCC3)C2)cn1)c1cnccn1 [Example 1.30]	0.4 nM	3.28 nM
CC(=O)N(C)[C@H]1CCN(C(=O)c2ccc(NCc3cccc(Cl)c3)nc2)C1 [Example 1.3]	1.02 nM	1.03 nM
CC(=O)N(C)[C@H]1CCN(C(=O)c2ccc(NC3(c4cncc(C(F)(F)F)c4)CC3)nc2)C1 [Example 1.17]	0.21 nM	5.59 nM
CC(=O)N(C)[C@H]1CCN(C(=O)c2ccc(NC(C)c3cccc(C#N)c3)nc2)C1 (stereo partly drawn) [Example 1.40]	0.67 nM	2.1 nM
CC(=O)N(C)[C@H]1CCN(C(=O)c2ccc(NCc3cccs3)nc2)C1 [Example 1.42]	0.85 nM	9.88 nM
CC(=O)N(C)[C@H]1CCN(C(=O)c2ccc(N[C@@H](C)c3ccc(C(F)(F)F)nc3)nc2)C1 [Example 9.1, N-Methyl-N-[(3S)-1-(6-{[(1S)-1-[6-(trifluoromethyl)pyridin-3-yl]ethyl]amino}pyridine-3-carbonyl)pyrrolidin-3-yl]acetamide]	0.39 nM	2.78 nM
CC(=O)N(C)[C@H]1CCN(C(=O)c2ccc(NCc3cncc(F)c3)nc2)C1 [Example 1.43]	0.86 nM	3.24 nM
Cc1ncccc1CNc1ccc(C(=O)N2CC[C@H](N(C)C(=O)C3(C)CCC3)C2)cn1 [Example 1.18]	0.22 nM	1.77 nM
CN(C(=O)C1CC1)[C@H]1CCN(C(=O)c2ccc(NCc3cncc(F)c3)nc2)C1 [Example 1.38]	0.65 nM	5.19 nM
CC(=O)N(C)[C@H]1CCN(C(=O)c2ccc(N[C@@H](C)c3cccc(S(N)(=O)=O)c3)nc2)C1 [Example 1.19]	0.22 nM	2.63 nM
CC(=O)N(C)[C@H]1CCN(C(=O)c2ccc(NCc3cccc(C#N)c3)nc2)C1 [Example 1.1, N-[(3S)-1-(6-{[(3-Cyanophenyl)methyl]amino}pyridine-3-carbonyl)pyrrolidin-3-yl]-N-methylacetamide]	1.27 nM	5.04 nM
CC(=O)N(C)[C@H]1CCN(C(=O)c2ccc(NC(C)c3cccc(S(N)(=O)=O)c3)nc2)C1 (stereo partly drawn) [Example 1.27]	0.3 nM	4.39 nM
CC(=O)N(C)[C@H]1CCN(C(=O)c2ccc(NCc3ccccc3Cl)nc2)C1 [Example 1.4]	0.48 nM	4.85 nM
CC(=O)N(C)[C@H]1CCN(C(=O)c2ccc(NC3CCc4ncccc43)nc2)C1 (stereo partly drawn) [Example 1.37]	0.61 nM	1.07 nM
CC(=O)N(C)[C@H]1CCN(C(=O)c2ccc(NCc3ccc(Cl)cc3)nc2)C1 [Example 4.1, N-[(3S)-1-(6-{[(4-Chlorophenyl)methyl]amino}pyridine-3-carbonyl)pyrrolidin-3-yl]-N-methylacetamide]	0.68 nM	5.88 nM
CC(=O)N(C)[C@H]1CCN(C(=O)c2ccc(NC3CCc4ncccc43)nc2)C1 (single isomer, unassigned) [Example 8.14]	8.56 nM	76.4 nM
O=C(c1ccc(NCc2ccc(Cl)cc2)nc1)N1CC[C@H](N2CCCC2=O)C1 [Example 8.9]	0.32 nM	4.89 nM
CC(=O)N(C)[C@H]1CCN(C(=O)c2ccc(N[C@@H](C)c3ccccc3)nc2)C1 [Example 1.2]	0.2 nM	4.51 nM
CC(=O)N(C)[C@H]1CCN(C(=O)c2ccc(NCc3ccccc3)nc2)C1 [Example 1.6]	0.81 nM	2.34 nM
CC(=O)N(C)[C@H]1CCN(C(=O)c2ccc(N[C@@H](C)c3ccc(F)cc3)nc2)C1 [Example 9.5]	0.4 nM	2.19 nM
CC(=O)N(C)[C@H]1CCN(C(=O)c2ccc(N[C@@H](C)c3ccc(F)cc3F)nc2)C1 [Example 9.6]	0.42 nM	5.03 nM

The next compounds have a lower IC50 [1] than those just listed; values first:

IC50 [1]	IC50 (Pantetheinase (vanin))	SMILES
0.19 nM	1.95 nM	CC(=O)N(C)[C@H]1CCN(C(=O)c2ccc(NC3CCc4ncccc43)nc2)C1 (single isomer, unassigned) [Example 8.8]
0.18 nM	8.7 nM	CN(C(=O)C1(C)CCC1)[C@H]1CCN(C(=O)c2ccc(NCc3cccnc3)nc2)C1 [Example 1.14]
0.15 nM	1.84 nM	CN(C(=O)C1CC1)[C@H]1CCN(C(=O)c2ccc(NC3(c4cncnc4)CC3)nc2)C1 [Example 8.6]
0.14 nM	16.3 nM	CN(c1ncccn1)[C@H]1CCN(C(=O)c2ccc(NCc3cccnc3)nc2)C1 [Example 8.5]
0.14 nM	1.27 nM	CN(C(=O)C1(C#N)CC1)[C@H]1CCN(C(=O)c2ccc(NC(C)(C)c3ccccc3)nc2)C1 [Example 4.5]
0.14 nM	1.24 nM	COc1ccncc1CNc1ccc(C(=O)N2CC[C@H](N(C)C(=O)C3CC3)C2)cn1 [Example 1.10]
0.13 nM	1.78 nM	CC(=O)N(C)[C@H]1CCN(C(=O)c2ccc(NCc3cccnc3)nc2)C1 [Example 7.1, N-Methyl-N-[(3S)-1-(6-{[(pyridin-3-yl)methyl]amino}pyridine-3-carbonyl)pyrrolidin-3-yl]acetamide]
0.12 nM	1.9 nM	Cc1ccncc1CNc1ccc(C(=O)N2CC[C@H](N(C)C(=O)C3(C)CCC3)C2)cn1 [Example 1.9]
0.12 nM	1.34 nM	CC(=O)N(C)[C@H]1CCN(C(=O)c2ccc(NC(C)(C)c3ccccc3)nc2)C1 [Example 4.4]
0.12 nM	2.32 nM	CC(C)(Nc1ccc(C(=O)N2CC[C@H](N3CCOC3=O)C2)cn1)c1ccccc1 [Example 4.3]
0.1 nM	2.43 nM	CC(C)(Nc1ccc(C(=O)N2CC[C@H](N3CCCC3=O)C2)cn1)c1ccccc1 [Example 4.2]
0.09 nM	1.82 nM	CC(=O)N(C)[C@H]1CCN(C(=O)c2ccc(NC(C)c3nccs3)nc2)C1 (single isomer, unassigned) [Example 5.1.A]
0.08 nM	1 nM	CN(C(=O)C1CC(F)(F)C1)[C@H]1CCN(C(=O)c2ccc(NC(C)(C)c3cccnc3)nc2)C1 [Example 8.2]
0.07 nM	4.49 nM	CN(C(=O)C1CCC1)[C@H]1CCN(C(=O)c2ccc(NC(C)(C)c3ccccc3)nc2)C1 [Example 2.2]
0.07 nM	1.33 nM	CN(C(=O)C1CCC1)[C@H]1CCN(C(=O)c2ccc(NCc3cccnc3)nc2)C1 [Example 3.1, N-Methyl-N-[(3S)-1-(6-{[(pyridin-3-yl)methyl]amino}pyridine-3-carbonyl)pyrrolidin-3-yl]cyclobutanecarboxamide]
